Laboratory results from patent publication US20250312291A1, “DIARYLHEPTANOID BASED MEDICINAL PREPARATION AND METHOD OF PREPARATION OF THE SAME” (ARJUNA NATURAL PRIVATE LIMITED, priority 2022, published 2025).

Test system: Amphistome ova
Assay: Deworming in cows positive for Amphistome ova (ova checked from dung matter)
Type: in vivo
Conditions: before treatment (baseline)
Excerpt: In one embodiment efficacy of diarylheptanoid metal complex on deworming in cows was studied. Cows positive for Amphistome ova were selected and treated with diarylheptanoid metal complex. Deworming in cows is important for several reasons. First, internal parasites or worms can cause significant harm to cow health and productivity. These parasites can cause damage to the cow's gastrointestinal tract, leading to reduced feed intake, weight loss, and poor growth rates. In severe cases, internal parasites can even lead to death. Second, internal parasites can also have economic impacts on the farm. Infected cows may have reduced milk production and lower-quality meat, which can lead to financial losses for the farmer. Third, internal parasites can also be a source of infection for other animals on the farm. Some parasites can be passed from cow to cow or from cow to other species such as sheep or goats. After 30 days of treatment with diarylheptanoid calcium complex, the number of Ova in the dung matter is nil compared to untreated control.
Twenty cows that were positive for Amphistome ova were selected for this study. Cows were grouped into four groups with 5 cows in each group. Cows were segregated as follows.
Before and after 30 days of treatment ova was checked from the dung matter.

CCCSc1ccc2nc(NC(=O)OC)[nH]c2c1 [Albendazole]
Ova Before: + + + + +
